According to patent publication US7423068B2, “Control of parasitic mites of honey bees” (The United States of America as represented by the …, priority 2001, dated 2008):
Marks after values point to notes of the source that are not given here.

What was measured:
free-running adult mites = tested on: free-running adult mites
Method: 2-Heptanone was tested for miticidal activity in two separate sets of bioassays. In the petri dish bioassays we exposed free-running adult mites to volatiles from 2-heptanone either in pure form or in an acrylic block dispenser (as described in a further experiment, below) and measured mortality over time. Mites were placed in petri dishes (5-10 mites/dish, 4 dishes per treatment and 4 dishes for controls) that were lined on the bottom with damp tissue paper covered with Parafilm®. Holes were punched in the Parafilm® using an insect pin to create a humid environment in the petri dish. A piece of filter paper the same size as the petri dish was placed on top of the Parafilm® sheet. In the first petri dish bioassay, 40 μl of pure 2-heptanone was placed on a piece of filter paper on the lid of the petri dish (treatment dishes). The Control dishes were set up as described above but nothing was added to the piece of filter paper fastened to the lid of the petri dish. The petri dishes were placed in separate incubators for treatments and Controls. Incubator temperatures were maintained at 33-34.4° C. […] In the second bioassay 0.1 g of a 30% concentration of 2-heptanone in acrylic block made as in Example 6 was placed in a plastic weighing boat in the center of petri dishes prepared as described above. Control petri dishes were prepared identically to those containing the acrylic block, but the weighing boat in the center of the dish was empty.
In another series of tests, 2-heptanone, 98+% (Sigrma-Aldrich); 3-heptanone (Fluka Chemika); 4-heptanone (Fluka Chemika); 2-hexanone; 2-octanone, 98% (Aldrich Chemical Co.); 1-heptanol (Fluka Chemika, 99.5% GC), and heptaldehyde, 95% (Aldrich Chemical Co.) were tested in petri dish bioassays wherein free-running adult mites were exposed to 40 μl of pure compound placed on filter paper as described above. The test conditions and Controls were as described above.
The test conditions and Controls were as described above.

Varroa mites = experiment: Varroa trapping device in a Varroa-infested 9-frame colony; format: in vivo, Varroa jacobsoni; conditions: trap coated with 20% 2-heptanone gel, between brood frames, after 48 hrs
Source text: In a second test to determine if 2-heptanone is an attractant, a Varroa trapping device was placed in a Varroa-infested 9-frame colony for 48 hrs. The device was constructed by placing a 2.54 cm^2 piece of Dewill® Varroa Mite Detector Insert coated with a 20% concentration of 2-heptanone in a gel formulation and covered with a 0.63 cm (0.25 inch) wire mesh. A wire was placed through the top of the trap so that the trap dangled between the frames in the colony. The device was placed between frames containing brood.

[1] = Diffusion of 2-heptanone from controlled release strip; format: physicochemical; conditions: polyurethane core with 60 g 2-heptanone, in 5-frame colony
Method: This test (Trial 3) was carried out in 5-frame colonies as described above except for the following changes. In this test, 2-heptanone was released using a controlled release strip as described in U.S. Pat. No. 5,750,129. In brief, the controlled release strip was composed of a polymer sleeve 20 cm long and 5 cm wide in which a polyurethane core containing 60 g 2-heptanone was sealed. The 2-heptanone strip was placed on the top of the frame (top bar). The controlled diffusion of 2-heptanone through the membrane occurred over a period of 3 weeks. A new 2-heptanone controlled release strip was placed on the top bar after 3 weeks. The Apistan® strip was placed between the frames as described above. The Control comprised no treatment.

Varroa mite = experiment: Miticidal activity in 5-frame honey bee colonies (sticky board counts); format: in vivo, Varroa jacobsoni
Method: This set of bioassays was conducted in 5-frame colonies. We tested miticidal activity of 30% concentration 2-heptanone in an acrylic block dispenser. Four colonies were established for each of the following treatments: 2-heptanone, Apistan® (a commercially available miticide for control of Varroa), and no treatment (i.e., Controls). Before each treatment, counts were made of the number of mites that dropped on to Dewill® Varroa Mite Detector Inserts (hereinafter denoted as “sticky boards”) placed at the bottom of colonies for one week (pre-treatment counts). A new sticky board then was inserted at the bottom of each colony, and either a single acrylic block dispenser with 30% 2-heptanone made as in Example 6 (surface area=28.3 cm^2) or a single Apistan® strip was placed between the frames. The Controls comprised no treatment. The number of mites on the sticky boards was counted weekly for 3-4 weeks afterwards (treatment interval). New sticky boards were inserted at the beginning of each week. At the end of the test period, the 2-heptanone and Apistan® were removed, and a new sticky board was inserted on the bottom of the colonies. A new Apistan® strip then was placed in the colonies to kill any remaining mites (post-treatment interval). The number of mites on the sticky board was counted after the colony was exposed to the new Apistan® strip for one week. The % Reduction in the Varroa Population was estimated by summing all the mites counted on the sticky board during the 3 or 4 week treatment interval and dividing it by the total number of mites counted for the colony during both the treatment and post-treatment intervals.
When we removed the acrylic strips from the colony after three weeks, we could still detect the odor of 2-heptanone. We repeated the test with new colonies, and in this trial (Trial-2) left the 2-heptanone and Apistan® strips in the colony for 4 weeks. We then placed the post-treatment Apistan® strips in the colonies.
This test (Trial 3) was carried out in 5-frame colonies as described above except for the following changes. […]

[2] = tested on: honey bee (Apis mellifera L.) colony; experiment: Influence of 2-heptanone on honey bee colony behavior (two-frame observation hive); format: in vivo
Method: Tests were conducted with 2-heptanone in pure form and in a 30% concentration in acrylic block made as in Example 6 to determine its effects on the honey bee (Apis mellifera L.) colony behavior. A two-frame observation hive (the hive had one frame on the bottom with adult worker bees and brood and a top frame with adult worker bees and honey) with a laying queen was used for the study. […] Within 4 hours the 2-heptanone had evaporated, and the bees returned to the frame, and the fanning stopped.
To test the effects of 2-heptanone in acrylic blocks, we again conducted studies using two frame observation hives arranged as described above. For one week prior to inserting the acrylic blocks, we measured queen ovipositions, and the number of workers bees leaving the hive per 5-minute interval in four observation colonies. We also counted the number of workers in a court surrounding the queen once during the 5-minute interval. We then added one acrylic block dispenser with a surface area of 8.04 cm^2 containing a 30% concentration of 2-heptanone. […] The latter served as Controls.

[3] = filter paper with 40 μl of pure 2-heptanone

## CCCCCC(C)=O [2-Heptanone]
free-running adult mites; 0.1 g of 30% 2-heptanone in acrylic block, 4 hrs., controls 6%
  % of the mites dead: 90%
free-running adult mites; 40 μl pure 2-heptanone on filter paper, 33-34.4° C., controls 0% mortality
  time until all the mites were dead: less than 2 hrs.
Varroa mites
  Varroa mites found stuck in the gel on the trap: several hundred
[1]
  period of controlled diffusion of 2-heptanone through the membrane: 3 weeks
Varroa mite; Trial 1, 3 week treatment, 30% 2-heptanone acrylic block or single Apistan strip, Control 42.2 ± 7.0
  % Reduction in Varroa Mite Population ± S.E.: 61.8 ± 8.5 a %
Varroa mite; Trial 2, 4 week treatment, 30% 2-heptanone acrylic block or single Apistan strip, Control 43.6 ± 4.2
  % Reduction in Varroa Mite Population ± S.E.: 73.6 ± 13.7 a %
Varroa mite; Trial 3, controlled release strip with 60 g 2-heptanone on top bar, renewed after 3 weeks, or Apistan strip, Control 69.35 ± 4.8
  % Reduction in Varroa Mite Population ± S.E.: 87.05 ± 4.4 a %
[2]; acrylic block 8.04 cm^2, 30% 2-heptanone
  immediate effect on the bees on the frames: no immediate effect on the bees on the frames
[2]; acrylic block 8.04 cm^2, 30% 2-heptanone, average per 5-minute interval, pretreatment 5.3
  Ovipositions, Post-Treatment: 5.3
[2]; acrylic block 8.04 cm^2, 30% 2-heptanone, average per 5-minute interval, pretreatment 10.2
  Workers in court, Post-Treatment: 10.2
[2]; acrylic block 8.04 cm^2, 30% 2-heptanone, average per 5-minute interval, pretreatment 16.1, significantly different p = 0.05
  Foragers leaving, Post-Treatment: 23.6*
[2]; [3]
  bee behavior after placing 2-heptanone in observation colony: all the bees moved off of the frame and began to fan
  time until 2-heptanone evaporated, bees returned to the frame and fanning stopped: ≤ 4 h
